# Laboratory results from US8735140B2, “Preservation and composition of bioprocess algae for production of lipids, seedstock, and feed” (Kuehnle AgroSystems, Inc., priority 2008, dated 2014).
# Assays:
# Assay type in all cases: cell-based
# Chlorella (KAS603) = assay: Trehalose preservation, storage as liquid in sponge matrix
# Experimental: (§1) Flask cultures (40 ml) of cells are grown to mid-log phase with a density between 3×10^6 and 3×10^7 cells/ml, and are centrifuged. Culture medium is removed after centrifugation, resulting in more concentrated algae cells. Cells are then re-suspended in fresh medium and left overnight. Cells are centrifuged again the next day in order to remove the medium, and are then re-suspended in fresh or salt water without any nutrient. The cell density of the suspension is determined prior to storage under the various treatments. Cells in 40 ml flask cultures are grown to mid-log phase with a density of between 3×10^6 and 3×10^7 cells/ml, and are centrifuged. Culture medium is removed after centrifugation, resulting in more concentrated algae cells. Cells are then re-suspended in ideal glass solution consisting of fresh culture medium and trehalose at a concentration of 0.1M, 0.3M, and 0.5M (dihydrate trehalose 100 from Hayashibara Co. Ltd, Okayama, Japan), respectively, and left overnight with mild agitation. Cells are centrifuged again to remove the ideal glass solution the next day, and are re-suspended in fresh or salt water without any nutrient. The cell density of the resulting suspension is determined prior to storage under the various treatments. (Some cells were also treated with a 0.5M sorbitol solution). In one specific embodiment, non-toxic sponges made of polyurethane matrix ([…]-plugs® from Jaece Industries, Fisher Scientific 14-127-40B), 20 mm in diameter, are cut in half length-wise to fit the wells in the BD Falcon 12-well tissue culture plates and autoclave sterilized. One sponge is placed in each well of the tissue culture plate. 2.0 ml algae cell suspension is pipetted into each well, and the sponge is squeezed with sterile forceps to produce a faster uptake of the cell suspension into the sponge. Plates are subsequently closed and placed under low light and at ambient temperature. After stored under the above preservation conditions for 5 months, algae cells can be rejuvenated by squeezing the sponges with sterile forceps to allow a complete uptake of all cells in the suspension, including those cells not in the sponge such as cells remaining in the well. Cells in the sponges are then removed from the 12-well plates and placed in 10 ml of fresh medium under light. Cell viability is determined by comparing the cell growth in control set with the experimental set. Specifically, cell counts are performed on all samples. The averaged density value (in cells per ml) for all the cultures after treatment is defined as “rejuvenation cell count.” In some samples, the percent recovery of cells immediately after storage is also determined. The formulae are illustrated as follows: Growth=(rejuvenation cell count)/(initial cell count) Cell recovery after storage=(cell density after storage)/(initial cell density), with controls set at 100% cell recovery. Viability after storage and rejuvenation in nutrient medium=(Growth of treatment)/(Growth of control)×100%, with controls set at 100% viability
# Tetraselmis KAS633 [1] = assay: as above
# Experimental: as §1
# Chlorella (KAS503) = assay: as above
# Experimental: as §1
# Tetraselmis KAS633 [2] = assay: Trehalose preservation, storage by embedding in alginate mat
# Experimental: (§2) Flask cultures (40 ml) of cells are grown to mid-log phase with a density between 3×10^6 and 3×10^7 cells/ml, and are centrifuged. Culture medium is removed after centrifugation, resulting in more concentrated algae cells. Cells are then re-suspended in fresh medium and left overnight. Cells are centrifuged again the next day in order to remove the medium, and are then re-suspended in fresh or salt water without any nutrient. The cell density of the suspension is determined prior to storage under the various treatments. Cells in 40 ml flask cultures are grown to mid-log phase with a density of between 3×10^6 and 3×10^7 cells/ml, and are centrifuged. Culture medium is removed after centrifugation, resulting in more concentrated algae cells. Cells are then re-suspended in ideal glass solution consisting of fresh culture medium and trehalose at a concentration of 0.1M, 0.3M, and 0.5M (dihydrate trehalose 100 from Hayashibara Co. Ltd, Okayama, Japan), respectively, and left overnight with mild agitation. Cells are centrifuged again to remove the ideal glass solution the next day, and are re-suspended in fresh or salt water without any nutrient. The cell density of the resulting suspension is determined prior to storage under the various treatments. (Some cells were also treated with a 0.5M sorbitol solution). In one specific embodiment, 2% (w/v) alginate solution (Sigma-Aldrich A-2033) and 3% CaCl2 solution (Sigma-Aldrich C1016) are prepared in salt water or fresh water medium as required by specific algae species, and autoclave sterilized. Then, 2.0 ml 2% alginate solution is pipetted into each well of a BD Falcon 12-well plate. 0.2 ml algae cell suspension is then pipetted into each well and the mixture is further stirred. The alginate-cell mixture is further sprayed with 3% CaCl2 solution in a sterile pump bottle, allowing the alginate to solidify. After solidification, plates are closed and placed under low light and at ambient temperature. After stored under the above preservation conditions for 5 months, algae cells can be rejuvenated by overlaying alginate/algae mixture with 3.0 ml sterile 5.0% NaPolyphosphate (Sigma Aldrich 305553) and allowing to the mixture sit overnight. The algae/alginate/NaPolyphosphate mixture is then removed from the 12-well plate, diluted with fresh medium (3 parts fresh medium to 1 part cell suspension) and placed under light. Cell viability is determined by comparing the cell growth in control set with the experimental set. Specifically, cell counts are performed on all samples. The averaged density value (in cells per ml) for all the cultures after treatment is defined as “rejuvenation cell count.” In some samples, the percent recovery of cells immediately after storage is also determined. The formulae are illustrated as follows: Growth=(rejuvenation cell count)/(initial cell count) Cell recovery after storage=(cell density after storage)/(initial cell density), with controls set at 100% cell recovery. Viability after storage and rejuvenation in nutrient medium=(Growth of treatment)/(Growth of control)×100%, with controls set at 100% viability
# Chlorella KAS603 = assay: as above
# Experimental: as §2
# Synechocystis KAS635 = assay: as above; conditions: 0.3M trehalose in BG11 only
# Experimental: as §2
# Chlorella KAS503 = assay: as above
# Experimental: as §2
# [3] = 0.5M trehalose in F/2, 20 weeks storage in water (no nutrients)
# [4] = 0.5M trehalose in F/2, 20 weeks storage, 0M control = 100%
# [5] = 0.5M trehalose in F/2, 20 weeks storage, final/initial density
# [6] = 0.3M trehalose in F/2, 21 weeks storage and 3 weeks rejuvenation
# [7] = 0.3M trehalose in F/2, 21 weeks storage and 3 weeks rejuvenation in nutrient medium
# [8] = 0.3M trehalose in F/2, 21 weeks storage and 3 weeks rejuvenation, 0M control = 100%
# [9] = 0.3M trehalose in F/2, 21 weeks storage in water (no nutrients)
# [10] = 0.3M trehalose in F/2, 21 weeks storage, 0M control = 100%
# [11] = 0.3M trehalose in F/2, 21 weeks storage, density after storage/initial density
smiles,measurement,setting,value
"OC[C@H]1O[C@H](O[C@H]2O[C@H](CO)[C@@H](O)[C@H](O)[C@H]2O)[C@H](O)[C@@H](O)[C@@H]1O [trehalose, α-D-glycosyl-α-D-glycosylpyranoside]",Final density after storage and 3 weeks rejuvenation,Chlorella (KAS603); [3],2.246 × 10^7 cells/ml
same,% Viability,Chlorella (KAS603); [4],(193%)
same,Growth,Chlorella (KAS603); [5],0.81
same,Final density after storage and 3 weeks rejuvenation,Tetraselmis KAS633 [1]; [3],2.031 × 10^6 cells/ml
same,% Viability,Tetraselmis KAS633 [1]; [4],(93%)
same,Growth,Tetraselmis KAS633 [1]; [5],0.14
same,Final density after storage and 3 weeks rejuvenation,Chlorella (KAS503); [3],6.565 × 10^7 cells/ml
same,Growth,Chlorella (KAS503); [5],2.88
same,Growth,Tetraselmis KAS633 [2]; [6],4.63
same,Cell number after storage & regrowth,Tetraselmis KAS633 [2]; [7],1.375 × 10^7 cells/ml
same,% Viability,Tetraselmis KAS633 [2]; [8],(102%)
same,Cell number after storage,Tetraselmis KAS633 [2]; [9],2.97 × 10^6 cells/ml
same,"Cell recovery after storage, relative to control",Tetraselmis KAS633 [2]; [10],(142%)
same,Cell recovery after storage,Tetraselmis KAS633 [2]; [11],2.22
same,Growth,Chlorella KAS603; [6],2.72
same,Cell number after storage & regrowth,Chlorella KAS603; [7],4.480 × 10^7 cells/ml
same,% Viability,Chlorella KAS603; [8],(149%)
same,Cell number after storage,Chlorella KAS603; [9],1.646 × 10^7 cells/ml
same,"Cell recovery after storage, relative to control",Chlorella KAS603; [10],(221%)
same,Growth,Synechocystis KAS635; 21 weeks storage and 3 weeks rejuvenation,4.72
same,Cell number after storage & regrowth,Synechocystis KAS635; 21 weeks storage and 3 weeks rejuvenation in nutrient medium,4.620 × 10^7 cells/ml
same,% Viability,"Synechocystis KAS635; 21 weeks storage and 3 weeks rejuvenation, 0M control = 100%",129%
same,Cell number after storage,Synechocystis KAS635; 21 weeks storage in water (no nutrients),9.798 × 10^6 cells/ml
same,"Cell recovery after storage, relative to control","Synechocystis KAS635; 21 weeks storage, 0M control = 100%",(180%)
same,Cell recovery after storage,"Synechocystis KAS635; 21 weeks storage, density after storage/initial density",0.29
same,Growth,Chlorella KAS503; [6],5.46
same,Cell number after storage & regrowth,Chlorella KAS503; [7],1.012 × 10^8 cells/ml
same,Cell number after storage,Chlorella KAS503; [9],1.860 × 10^7 cells/ml
same,"Cell recovery after storage, relative to control",Chlorella KAS503; [10],(84%)
same,Cell recovery after storage,Chlorella KAS503; [11],1.8
